Values after ≈ are worked out from the molar mass of the structure shown. Read-outs that look alike come from different tables or passages of the source.
Columns and labels:
[1] = tested on: kanamycin-resistant bacteria; conditions: in words, prior work; cited from earlier work
[2] = clinical tests, in words; cited from earlier work
Proteus rettgeri GN 466 = assay: M.I.C. by standard serial dilution method; assay type: cell-based; conditions: Providencia rettgeri, GN466; Proteus rettgeri GN 466; nutrient agar, 37° C, 18 hours; read-out: minimum inhibitory concentration (M.I.C.)
Method: (§1) These particular compounds, that is, 1-n-(α-hydroxy-ω-aminoalkanoyl)-3'-deoxy-5-O-pentofuranosylneamines according to the aforesaid general formula (I) have useful antibacterial activity against a wide variety of bacteria, including gram-negative bacteria and gram-positive bacteria. The minimum inhibitory concentration (M.I.C.) (mcg/ml) of these compounds against various organisms was determined by a standard serial dilution method at an incubation temperature of 37° C, the estimation being made after 18 hours incubation or each test organism, except that the incubation time was 48 hours for Mycobacterium smegmatis. The incubation medium used was nutrient agar.

Escherichia coli NIHJ = assay: M.I.C. by standard serial dilution method; assay type: cell-based; conditions: read-out: minimum inhibitory concentration (M.I.C.)
Method: as §1

[3] = tested on: Escherichia coli K-12 ML 1410 R81; assay: M.I.C. by standard serial dilution method; assay type: cell-based; conditions: 18 h, read-out: minimum inhibitory concentration (M.I.C.)
Method: as §1

Sarcina lutea PCl 1001 = assay: M.I.C. by standard serial dilution method; assay type: cell-based; conditions: Micrococcus luteus, PCL1001, nutrient agar, 37° C, 18 hours, read-out: minimum inhibitory concentration (M.I.C.)
Method: as §1

Bacillus subtilis B-558 = assay: M.I.C. by standard serial dilution method; assay type: cell-based; conditions: read-out: minimum inhibitory concentration (M.I.C.)
Method: as §1

[4] = tested on: Klebsiella pneumoniae Type 22, No. 3038; assay: M.I.C. by standard serial dilution method; assay type: cell-based; conditions: read-out: minimum inhibitory concentration (M.I.C.)
Method: as §1

[5] = tested on: Staphylococcus aureus FDA 209P; assay: M.I.C. by standard serial dilution method; assay type: cell-based; conditions: FDA209P, S. aureus FDA 209P, nutrient agar, 37° C, 18 hours, read-out: minimum inhibitory concentration (M.I.C.)
Method: as §1

[6] = tested on: Pseudomonas aeruginosa GN 315; assay: M.I.C. by standard serial dilution method; assay type: cell-based; conditions: GN315, P. aeruginosa GN 315, nutrient agar, 37° C, 18 hours, read-out: minimum inhibitory concentration (M.I.C.)
Method: as §1

[7] = tested on: Escherichia coli K-12 ML 1629; assay: M.I.C. by standard serial dilution method; assay type: cell-based; conditions: read-out: minimum inhibitory concentration (M.I.C.)
Method: as §1

[8] = tested on: Escherichia coli K-12 LA 290 R55; assay: M.I.C. by standard serial dilution method; assay type: cell-based; conditions: K12LA290R55, 18 h, read-out: minimum inhibitory concentration (M.I.C.)
Method: as §1

[9] = tested on: Mycobacterium smegmatis ATCC 607; assay: M.I.C. by standard serial dilution method; assay type: cell-based; conditions: Mycolicibacterium smegmatis, ATCC607, nutrient agar, 37° C, 48 hours, read-out: minimum inhibitory concentration (M.I.C.)
Method: as §1

[10] = tested on: Escherichia coli K-12 W677; assay: M.I.C. by standard serial dilution method; assay type: cell-based; conditions: read-out: minimum inhibitory concentration (M.I.C.)
Method: as §1

[11] = tested on: Klebsiella pneumoniae PCI 602; assay: M.I.C. by standard serial dilution method; assay type: cell-based; conditions: read-out: minimum inhibitory concentration (M.I.C.)
Method: as §1

[12] = tested on: Pseudomonas aeruginosa No. 12; assay: M.I.C. by standard serial dilution method; assay type: cell-based; conditions: P. aeruginosa No. 12, nutrient agar, 37° C, 18 hours, read-out: minimum inhibitory concentration (M.I.C.)
Method: as §1

Proteus rettgeri GN 311 = assay: M.I.C. by standard serial dilution method; assay type: cell-based; conditions: Providencia rettgeri, GN311, nutrient agar, 37° C, 18 hours, read-out: minimum inhibitory concentration (M.I.C.)
Method: as §1

[13] = tested on: Escherichia coli K-12 ML 1630; assay: M.I.C. by standard serial dilution method; assay type: cell-based; conditions: K12ML1630, E. coli K-12 ML 1630, nutrient agar, 37° C, 18 hours, read-out: minimum inhibitory concentration (M.I.C.)
Method: as §1

[14] = tested on: Escherichia coli K-12 LA 290 R56; assay: M.I.C. by standard serial dilution method; assay type: cell-based; conditions: K12LA290R56, 18 h, read-out: minimum inhibitory concentration (M.I.C.)
Method: as §1

[15] = tested on: Escherichia coli K-12 JR66/W677; assay: M.I.C. by standard serial dilution method; assay type: cell-based; conditions: K12JR66/W677, 18 h, read-out: minimum inhibitory concentration (M.I.C.)
Method: as §1

[16] = tested on: Escherichia coli K-12 LA 290 R64; assay: M.I.C. by standard serial dilution method; assay type: cell-based; conditions: K12LA290R64, 18 h, read-out: minimum inhibitory concentration (M.I.C.)
Method: as §1

Salmonella typhosa T-63 = assay: M.I.C. by standard serial dilution method; assay type: cell-based; conditions: Salmonella enterica, 18 h, read-out: minimum inhibitory concentration (M.I.C.)
Method: as §1

Escherichia coli K-12 = assay: M.I.C. by standard serial dilution method; assay type: cell-based; conditions: read-out: minimum inhibitory concentration (M.I.C.)
Method: as §1

[17] = tested on: Escherichia coli K-12 ML 1410; assay: M.I.C. by standard serial dilution method; assay type: cell-based; conditions: K12ML1410, E. coli K-12 ML 1410, nutrient agar, 37° C, 18 hours, read-out: minimum inhibitory concentration (M.I.C.)
Method: as §1

[18] = tested on: Pseudomonas aeruginosa TI-13; assay: M.I.C. by standard serial dilution method; assay type: cell-based; conditions: TI13, P. aeruginosa TI-13, nutrient agar, 37° C, 18 hours, read-out: minimum inhibitory concentration (M.I.C.)
Method: as §1

[19] = tested on: Pseudomonas aeruginosa A3; assay: M.I.C. by standard serial dilution method; assay type: cell-based; conditions: P. aeruginosa A3, nutrient agar, 37° C, 18 hours, read-out: minimum inhibitory concentration (M.I.C.)
Method: as §1

[20] = tested on: Pseudomonas aeruginosa 99; assay: M.I.C. by standard serial dilution method; assay type: cell-based; conditions: P. aeruginosa 99, nutrient agar, 37° C, 18 hours, read-out: minimum inhibitory concentration (M.I.C.)
Method: as §1

[21] = E. coli NIHJ, nutrient agar, 37° C, 18 hours
[22] = B558, B. subtilis B-558, nutrient agar, 37° C, 18 hours
[23] = K. pneumoniae Type 22, No. 3038, nutrient agar, 37° C, 18 hours
[24] = K12ML1629, E. coli K-12 ML 1629, nutrient agar, 37° C, 18 hours
[25] = K12W677, E. coli K-12 W677, nutrient agar, 37° C, 18 hours
[26] = PCI602, K. pneumoniae PCI 602, nutrient agar, 37° C, 18 hours
[27] = K12, E. coli K-12, nutrient agar, 37° C, 18 hours

Row | Structure (SMILES) | MIC (Proteus rettgeri GN 466) | MIC [3] | MIC (Sarcina lutea PCl 1001) | MIC [5] | MIC [6] | MIC [8] | MIC [9] | MIC [12] | MIC (Proteus rettgeri GN 311) | MIC [13] | MIC [14] | MIC [15] | MIC [16] | MIC (Salmonella typhosa T-63) | MIC [17] | MIC [18] | MIC [19] | MIC [20] | MIC (Escherichia coli NIHJ; [21]) | MIC (Bacillus subtilis B-558; [22]) | also measured
1 | NC[C@@H]1CC[C@@H](N)[C@@H](O[C@H]2[C@H](O)[C@@H](O[C@H]3O[C@H](CO)[C@@H](O)[C@H](N)[C@H]3O)[C@H](N)C[C@@H]2N)O1 [DKB, 3',4'-dideoxykanamycin B] |  |  |  |  |  |  |  |  |  |  |  |  |  |  |  |  |  |  |  |  | antibacterial activity against resistant bacteria [1]: high antibacterial activity against the above-mentioned resistant bacteria; clinical usefulness [2]: very useful and effective semi-synthetic antibiotic in clinical tests
2 | NCC(O)C(=O)N[C@@H]1C[C@H](N)[C@@H](O[C@H]2O[C@H](CN)[C@@H](O)C[C@H]2N)[C@H](O[C@@H]2O[C@H](CO)[C@H](O)[C@H]2O)[C@H]1O (stereo partly drawn) [Compound No. 1, 1N-((RS)-3-amino-2-hydroxypropionyl)-3'-deoxy-5-O-β-D-xylofuranosylneamine] | 3.12 µg/mL (≈ 5.94 µM) | 6.25 µg/mL (≈ 11.9 µM) | 25 µg/mL (≈ 47.6 µM) | 3.12 µg/mL (≈ 5.94 µM) | > 100 µg/mL | 3.12 µg/mL (≈ 5.94 µM) | 0.39 µg/mL (≈ 0.742 µM) | 12.5 µg/mL (≈ 23.8 µM) | 12.5 µg/mL (≈ 23.8 µM) | 3.12 µg/mL (≈ 5.94 µM) | 3.12 µg/mL (≈ 5.94 µM) | 3.12 µg/mL (≈ 5.94 µM) | 1.56 µg/mL (≈ 2.97 µM) | 1.56 µg/mL (≈ 2.97 µM) | 3.12 µg/mL (≈ 5.94 µM) | 25 µg/mL (≈ 47.6 µM) | 6.25 µg/mL (≈ 11.9 µM) | 12.5 µg/mL (≈ 23.8 µM) |  |  | MIC (Escherichia coli NIHJ; 18 h): 1.56 µg/mL (≈ 2.97 µM); MIC (Bacillus subtilis B-558; B558, 18 h): 1.56 µg/mL (≈ 2.97 µM); MIC ([4]; 18 h): 1.56 µg/mL (≈ 2.97 µM); MIC ([7]; K12ML1629, 18 h): 1.56 µg/mL (≈ 2.97 µM); MIC ([10]; K12W677, 18 h): 1.56 µg/mL (≈ 2.97 µM); MIC ([11]; PCI602, 18 h): 1.56 µg/mL (≈ 2.97 µM); MIC (Escherichia coli K-12; K12, 18 h): 1.56 µg/mL (≈ 2.97 µM)
3 | NCC[C@H](O)C(=O)N[C@@H]1C[C@H](N)[C@@H](O[C@H]2O[C@H](CN)[C@@H](O)C[C@H]2N)[C@H](O[C@@H]2O[C@H](CO)[C@H](O)[C@H]2O)[C@H]1O [compound 6, 1-N-((S)-4-amino-2-hydroxybutyryl)-3'-deoxy-5-O-β-D-xylofuranosylneamine] | 0.78 µg/mL (≈ 1.45 µM) | 1.56 µg/mL (≈ 2.89 µM) | 25 µg/mL (≈ 46.3 µM) | 0.39 µg/mL (≈ 0.723 µM) | > 100 µg/mL | 0.78 µg/mL (≈ 1.45 µM) | 0.2 µg/mL (≈ 0.371 µM) | 25 µg/mL (≈ 46.3 µM) | 3.12 µg/mL (≈ 5.78 µM) | 0.78 µg/mL (≈ 1.45 µM) | 0.39 µg/mL (≈ 0.723 µM) | 0.39 µg/mL (≈ 0.723 µM) | 0.2 µg/mL (≈ 0.371 µM) | 0.78 µg/mL (≈ 1.45 µM) | 1.56 µg/mL (≈ 2.89 µM) | 25 µg/mL (≈ 46.3 µM) | 3.12 µg/mL (≈ 5.78 µM) | 12.5 µg/mL (≈ 23.2 µM) | 0.78 µg/mL (≈ 1.45 µM) | 0.2 µg/mL (≈ 0.371 µM) | MIC [4, 23]: 0.39 µg/mL (≈ 0.723 µM); MIC [7, 24]: 0.39 µg/mL (≈ 0.723 µM); MIC [10, 25]: 0.39 µg/mL (≈ 0.723 µM); MIC [11, 26]: 0.39 µg/mL (≈ 0.723 µM); MIC (Escherichia coli K-12; [27]): 0.39 µg/mL (≈ 0.723 µM)
4 | NCC[C@H](O)C(=O)N[C@@H]1C[C@H](N)[C@@H](O[C@H]2O[C@H](CN)[C@@H](O)C[C@H]2N)[C@H](O[C@@H]2O[C@@H](CO)[C@H](O)[C@H]2O)[C@H]1O [Compound No. 3, 1-N-((S)-4-amino-2-hydroxybutyryl)-3'-deoxy-5-O-α-L-arabinofuranosylneamine] | 0.78 µg/mL (≈ 1.45 µM) | 1.56 µg/mL (≈ 2.89 µM) | 25 µg/mL (≈ 46.3 µM) | 0.39 µg/mL (≈ 0.723 µM) | > 100 µg/mL | 1.56 µg/mL (≈ 2.89 µM) | 0.2 µg/mL (≈ 0.371 µM) | 12.5 µg/mL (≈ 23.2 µM) | 3.12 µg/mL (≈ 5.78 µM) | 0.78 µg/mL (≈ 1.45 µM) | 0.39 µg/mL (≈ 0.723 µM) | 1.56 µg/mL (≈ 2.89 µM) | 0.2 µg/mL (≈ 0.371 µM) | 0.78 µg/mL (≈ 1.45 µM) | 0.78 µg/mL (≈ 1.45 µM) | 25 µg/mL (≈ 46.3 µM) | 0.78 µg/mL (≈ 1.45 µM) | 6.25 µg/mL (≈ 11.6 µM) | 0.78 µg/mL (≈ 1.45 µM) | 0.2 µg/mL (≈ 0.371 µM) | MIC [4, 23]: 0.39 µg/mL (≈ 0.723 µM); MIC [7, 24]: 0.39 µg/mL (≈ 0.723 µM); MIC [10, 25]: 0.39 µg/mL (≈ 0.723 µM); MIC [11, 26]: 0.39 µg/mL (≈ 0.723 µM); MIC (Escherichia coli K-12; [27]): 0.39 µg/mL (≈ 0.723 µM)
